# Laboratory results published in patent US11884661B2, “3-substituted propionic acids as αV integrin inhibitors” (BRISTOL-MYERS SQUIBB COMPANY, priority 2016, dated 2024).
# pIC50: −log10 of the molar value.
# Molecular target: T1, human αVβ6 (Homo sapiens, UniProt P06756+P18564)
# T1 construct: purchased R & D systems 3817-AV
# Assay: human αVβ6 HTRF binding assay
# Conditions: recombinant human αVβ6 integrin, FITC-conjugated fibronectin
# Protocol: All binding assays used the HTRF (homogeneous time resolved fluorescence) technology from Cisbio International, therefore all assays are described as HTRF binding assays. The assay results for the Examples are listed above together with the characterization data. The HTRF binding assays are established for the following integrins: human αVβ6, human αVβ1, human αVβ3, human αVβ5, and human αVβ8. All assays used the following assay buffer: 20 mM Tris, pH 7.4, 1 mM MgCl2, 1 mM MnCl2, 0.01% Tween 20, and 0.01% BSA. Alternatively, a SPA-based assay was used for evaluation of receptor binding.
# The following describes the components and a representative procedure for the human αVβ6 HTRF binding assay: Recombinant human αVβ6 Integrin (R & D systems, 3817-AV) was biotinylated. Biotinylated human αVβ6 Integrin was added to assay vessel at a final concentration of 1.25 nM. FITC-conjugated fibronectin (Cytoskeleton, FNR02) was then added at the final concentration of 5 nM. The mixture was centrifuged at 600 rpm for three minutes using Thermo Fisher Heraeus Multifuge X3 centrifuge and then incubated at RT for an hour. Streptavidin Terbium (Cisbio international 610STLB) was then added at the final concentration of 0.625 nM. The resulting mixture was centrifuged at 600 rpm for three minutes using Thermo Fisher Heraeus Multifuge X3 centrifuge and then incubated at room temperature overnight in dark before reading HTRF signals.
# T1 sequence (P06756 31-992 limits assumed): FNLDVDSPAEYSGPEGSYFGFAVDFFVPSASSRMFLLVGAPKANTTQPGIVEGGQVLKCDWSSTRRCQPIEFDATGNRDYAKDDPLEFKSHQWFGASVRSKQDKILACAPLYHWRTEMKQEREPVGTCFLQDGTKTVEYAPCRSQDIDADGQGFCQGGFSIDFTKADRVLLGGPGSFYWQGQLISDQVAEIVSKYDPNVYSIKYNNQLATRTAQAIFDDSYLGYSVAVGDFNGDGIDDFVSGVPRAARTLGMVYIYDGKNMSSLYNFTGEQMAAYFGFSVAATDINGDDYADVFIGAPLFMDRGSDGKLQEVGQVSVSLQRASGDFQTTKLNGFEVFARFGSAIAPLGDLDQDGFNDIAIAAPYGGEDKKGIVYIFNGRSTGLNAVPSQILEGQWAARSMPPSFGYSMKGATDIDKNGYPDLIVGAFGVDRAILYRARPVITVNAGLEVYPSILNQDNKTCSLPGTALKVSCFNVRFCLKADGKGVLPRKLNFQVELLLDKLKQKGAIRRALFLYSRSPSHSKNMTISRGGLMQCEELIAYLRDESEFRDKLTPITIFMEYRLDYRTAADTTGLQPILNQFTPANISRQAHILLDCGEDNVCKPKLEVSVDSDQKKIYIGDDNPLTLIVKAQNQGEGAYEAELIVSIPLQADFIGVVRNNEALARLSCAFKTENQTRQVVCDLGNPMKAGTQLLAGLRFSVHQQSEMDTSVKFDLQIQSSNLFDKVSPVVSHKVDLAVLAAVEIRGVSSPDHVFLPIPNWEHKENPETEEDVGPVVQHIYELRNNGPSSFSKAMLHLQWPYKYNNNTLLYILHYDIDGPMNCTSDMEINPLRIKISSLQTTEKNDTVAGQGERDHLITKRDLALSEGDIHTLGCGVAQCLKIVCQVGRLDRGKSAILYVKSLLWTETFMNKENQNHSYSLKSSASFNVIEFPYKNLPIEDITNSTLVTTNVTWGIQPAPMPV
# T1 sequence (P18564 22-707 limits assumed): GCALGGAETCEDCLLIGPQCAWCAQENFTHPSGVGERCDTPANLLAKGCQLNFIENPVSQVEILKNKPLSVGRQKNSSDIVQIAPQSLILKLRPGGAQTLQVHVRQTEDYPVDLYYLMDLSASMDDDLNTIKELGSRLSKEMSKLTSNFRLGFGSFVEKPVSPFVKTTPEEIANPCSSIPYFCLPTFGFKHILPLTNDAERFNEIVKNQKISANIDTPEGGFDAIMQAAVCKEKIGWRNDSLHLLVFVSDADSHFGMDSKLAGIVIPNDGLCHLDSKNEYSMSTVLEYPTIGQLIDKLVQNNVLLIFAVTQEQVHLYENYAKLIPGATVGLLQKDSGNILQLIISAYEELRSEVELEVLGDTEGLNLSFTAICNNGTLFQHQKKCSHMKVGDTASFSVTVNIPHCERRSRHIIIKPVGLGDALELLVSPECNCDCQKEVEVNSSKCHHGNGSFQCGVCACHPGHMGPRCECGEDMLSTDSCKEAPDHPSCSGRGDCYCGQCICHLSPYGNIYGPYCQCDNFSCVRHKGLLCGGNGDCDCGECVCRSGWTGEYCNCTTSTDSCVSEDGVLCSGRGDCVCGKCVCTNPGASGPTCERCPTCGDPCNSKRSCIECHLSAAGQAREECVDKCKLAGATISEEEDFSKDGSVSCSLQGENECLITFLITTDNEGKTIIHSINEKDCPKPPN
row,pIC50,Compound
1,5.99,"COc1ncc(C(CC(=O)O)n2nccc2CCC[C@@H]2CCc3cccnc3N2)cn1 (mixture of isomers) [Example 93, 3-(2-methoxypyrimidin-5-yl)-3-(5-(3-((R)-1,2,3,4-tetrahydro-1,8-naphthyridin-2-yl)propyl)-1H-pyrazol-1-yl)propanoic acid]"
2,7.28,"COc1ccc(C(CC(=O)O)n2ncc(CCCc3ccc4c(n3)NCCC4)n2)cc1F (single isomer, unassigned) [Example 172, 3-(3-fluoro-4-methoxyphenyl)-3-(4-(3-(5,6,7,8-tetrahydro-1,8-naphthyridin-2-yl)propyl)-2H-1,2,3-triazol-2-yl)propanoic acid]"
3,8.31,"CN(C)C(=O)c1ccc(C(CC(=O)O)c2nc(CCCc3ccc4c(n3)NCCC4)cs2)cc1F (single isomer, unassigned) [Example 135, 3-(4-(dimethylcarbamoyl)-3-fluorophenyl)-3-(4-(3-(5,6,7,8-tetrahydro-1,8-naphthyridin-2-yl)propyl)thiazol-2-yl)propanoic acid]"
4,7.00,"O=C(O)CC(c1ccc2nccnc2c1)c1nc(CCCCc2ccc3c(n2)NCCC3)cs1 (single isomer, unassigned) [Example 119, 3-(quinoxalin-6-yl)-3-(4-(4-(5,6,7,8-tetrahydro-1,8-naphthyridin-2-yl)butyl)thiazol-2-yl)propanoic acid]"
5,6.14,"O=C(O)C[C@H](c1cnc2c(c1)OCCO2)n1ccc(CCCc2ccc3c(n2)NCCC3)n1 [Example 52, (R)-3-(2,3-Dihydro-[1,4]dioxino[2,3-b]pyridin-7-yl)-3-(3-(3-(5,6,7,8-tetrahydro-1,8-naphthyridin-2-yl)propyl)-1H-pyrazol-1-yl)propanoic acid]"
6,7.92,"CN(C)C(=O)c1ccc(C(CC(=O)O)c2nc(CCCc3ccc4c(n3)NCCC4)cs2)cc1F (single isomer, unassigned) [Example 136, 3-(4-(dimethylcarbamoyl)-3-fluorophenyl)-3-(4-(3-(5,6,7,8-tetrahydro-1,8-naphthyridin-2-yl)propyl)thiazol-2-yl)propanoic acid]"
7,8.22,"Cc1ncc(C(CC(=O)O)c2nc(CCCc3ccc4c(n3)NCCC4)cs2)cn1 (single isomer, unassigned) [Example 148, 3-(2-methylpyrimidin-5-yl)-3-(4-(3-(5,6,7,8-tetrahydro-1,8-naphthyridin-2-yl)propyl)thiazol-2-yl)propanoic acid]"
8,6.87,"COc1ccc(C(CC(=O)O)c2cc(CCCc3ccc4c(n3)NCCC4)c[nH]2)cc1F (racemic) [Example 10, (±)-3-(3-Fluoro-4-methoxyphenyl)-3-(4-(3-(5,6,7,8-tetrahydro-1,8-naphthyridin-2-yl)propyl)-1H-pyrrol-2-yl)propanoic acid]"
9,6.60,"COc1ccc(C(CC(=O)O)c2nc(CCCCc3ccc4c(n3)NCCC4)c(C)o2)cc1F (single isomer, unassigned) [Example 180, 3-(3-fluoro-4-methoxyphenyl)-3-(5-methyl-4-(4-(5,6,7,8-tetrahydro-1,8-naphthyridin-2-yl)butyl)oxazol-2-yl)propanoic acid]"
10,8.15,"COc1ccc(C(CC(=O)O)c2nc(CCCC3CCc4cccnc4N3)cs2)cc1F (single isomer, unassigned) [Example 158, 3-(3-fluoro-4-methoxyphenyl)-3-(4-(3-(1,2,3,4-tetrahydro-1,8-naphthyridin-2-yl)propyl)thiazol-2-yl)propanoic acid]"
11,6.23,"Cc1ncc(C(CC(=O)O)n2ccc(CCCc3ccc4c(n3)NCCCC4)n2)cn1 (stereo not drawn) [Example 98, 3-(2-methylpyrimidin-5-yl)-3-(3-(3-(6,7,8,9-tetrahydro-5H-pyrido[2,3-b]azepin-2-yl)propyl)-1H-pyrazol-1-yl)propanoic acid]"
12,8.60,"COc1ccc(C(CC(=O)O)c2nc(CCCCc3ccc4c(n3)NCCC4)cs2)cc1OC (single isomer, unassigned) [Example 124, 3-(3,4-dimethoxyphenyl)-3-(4-(4-(5,6,7,8-tetrahydro-1,8-naphthyridin-2-yl)butyl)thiazol-2-yl)propanoic acid]"
13,8.52,"COc1ccc(C(CC(=O)O)n2ncc(CCCc3ccc4c(n3)NCCC4)n2)cc1F (single isomer, unassigned) [Example 173, 3-(3-fluoro-4-methoxyphenyl)-3-(4-(3-(5,6,7,8-tetrahydro-1,8-naphthyridin-2-yl)propyl)-2H-1,2,3-triazol-2-yl)propanoic acid]"
14,5.55,"O=C(O)CC(c1cnc2nccnc2c1)n1ccc(CCCc2ccc3c(n2)NCCC3)n1 (racemic) [Example 33, (±)-3-(Pyrido[2,3-b]pyrazin-7-yl)-3-(3-(3-(5,6,7,8-tetrahydro-1,8-naphthyridin-2-yl)propyl)-1H-pyrazol-1-yl)propanoic acid]"
15,8.31,"COc1cncc(C(CC(=O)O)n2ccc(CCCc3ccc4c(n3)NCCCC4)n2)c1 (racemic) [Example 107, (±)-3-(5-methoxypyridin-3-yl)-3-(3-(3-(6,7,8,9-tetrahydro-5H-pyrido[2,3-b]azepin-2-yl)propyl)-1H-pyrazol-1-yl)propanoic acid]"
16,6.49,"COc1ccc(C(CC(=O)O)c2cnn(CCCc3ccc4c(n3)NCCC4)c2)cn1 (racemic) [Example 7, (±)-3-(6-Methoxypyridin-3-yl)-3-(1-(3-(5,6,7,8-tetrahydro-1,8-naphthyridin-2-yl)propyl)-1H-pyrazol-4-yl)propanoic acid]"
17,7.51,"O=C(O)C[C@@H](c1ccc(O)nc1)n1ccc(CCCc2ccc3c(n2)NCCC3)n1 [Example 12, (S)-3-(6-Hydroxypyridin-3-yl)-3-(3-(3-(5,6,7,8-tetrahydro-1,8-naphthyridin-2-yl)propyl)-1H-pyrazol-1-yl)propanoic acid]"
18,7.85,"O=C(O)CC(c1ccc2nccnc2c1)c1nc(CCCCc2ccc3c(n2)NCCC3)cs1 (single isomer, unassigned) [Example 120, 3-(quinoxalin-6-yl)-3-(4-(4-(5,6,7,8-tetrahydro-1,8-naphthyridin-2-yl)butyl)thiazol-2-yl)propanoic acid]"
19,6.59,"COc1ccc(C(CC(=O)O)c2nc(CCCC3CCc4cccnc4N3)cs2)cn1 (single isomer, unassigned) [Example 156, 3-(6-methoxypyridin-3-yl)-3-(4-(3-(1,2,3,4-tetrahydro-1,8-naphthyridin-2-yl)propyl)thiazol-2-yl)propanoic acid]"
20,6.82,"COc1ccc(C(CC(=O)O)n2ccc(CCCc3ccc4c(n3)NCCCC4)n2)cn1 (single isomer, unassigned) [Example 102, 3-(6-methoxypyridin-3-yl)-3-(3-(3-(6,7,8,9-tetrahydro-5H-pyrido[2,3-b]azepin-2-yl)propyl)-1H-pyrazol-1-yl)propanoic acid]"
21,7.11,"COc1ccc(C(CC(=O)O)c2nc(CCCCc3ccc4c(n3)NCCC4)cs2)cn1 (single isomer, unassigned) [Example 13, 3-(6-Methoxypyridin-3-yl)-3-(4-(4-(5,6,7,8-tetrahydro-1,8-naphthyridin-2-yl)butyl)thiazol-2-yl)propanoic acid]"
22,8.22,"O=C(O)CC(c1cccc(N2CCOCC2)c1)c1nc(CCCCc2ccc3c(n2)NCCC3)cs1 (single isomer, unassigned) [Example 126, 3-(3-morpholinophenyl)-3-(4-(4-(5,6,7,8-tetrahydro-1,8-naphthyridin-2-yl)butyl)thiazol-2-yl)propanoic acid]"
23,6.55,"COc1ccc(C(CC(=O)O)c2ncc(CCCCc3ccc4c(n3)NCCC4)n2C)cc1F (single isomer, unassigned) [Example 166, 3-(3-fluoro-4-methoxyphenyl)-3-(1-methyl-5-(4-(5,6,7,8-tetrahydro-1,8-naphthyridin-2-yl)butyl)-1H-imidazol-2-yl)propanoic acid]"
24,8.15,"CCOc1ncc([C@H](CC(=O)O)n2ccc(CCCc3ccc4c(n3)NCCC4)n2)cn1 [Example 56, (S)-3-(2-Ethoxypyrimidin-5-yl)-3-(3-(3-(5,6,7,8-tetrahydro-1,8-naphthyridin-2-yl)propyl)-1H-pyrazol-1-yl)propanoic acid]"
25,6.66,"Cc1cc(C)n(C(CC(=O)O)c2nc(CCCc3ccc4c(n3)NCCC4)cs2)n1 (single isomer, unassigned) [Example 163, 3-(3,5-dimethyl-1H-pyrazol-1-yl)-3-(4-(3-(5,6,7,8-tetrahydro-1,8-naphthyridin-2-yl)propyl)thiazol-2-yl)propanoic acid]"
26,6.68,"COc1ccc(C(CC(=O)O)n2ccc(CCCc3ccc4c(n3)NCCC4)n2)cn1 (single isomer, unassigned) [Example 4, 3-(6-Methoxypyridin-3-yl)-3-(3-(3-(5,6,7,8-tetrahydro-1,8-naphthyridin-2-yl)propyl)-1H-pyrazol-1-yl)propanoic acid]"
27,8.37,"O=C(O)CC(c1cnc2ccccc2c1)n1ncc(CCCc2ccc3c(n2)NCCC3)n1 (single isomer, unassigned) [Example 175, 3-(quinolin-3-yl)-3-(4-(3-(5,6,7,8-tetrahydro-1,8-naphthyridin-2-yl)propyl)-2H-1,2,3-triazol-2-yl)propanoic acid]"
